Data: US9776990B2, “Isoindolone derivatives” (AbbVie Inc., priority 2012, dated 2017)
Read-outs that look alike come from different tables or passages of the source.

Experiments:
BRD4 (BDII_E352-M457) = BRD4 (BDII_E352-M457) (Homo sapiens (Human), UniProt O60885); experiment: TR-FRET bromodomain binding assay, BRD4 second bromodomain; details: His-tagged BD2, 30 nM Alexa647 probe
Experimental: (§1) A time-resolved fluorescence resonance energy transfer (TR-FRET) assay was used to determine the affinities of compounds of the Examples listed in Table 1 for each bromodomain of BRD4. His-tagged first (BD1: amino acids K57-E168) and second (BD2: amino acids E352-E168) bromodomains of BRD4 were expressed and purified. An Alexa647-labeled BET-inhibitor was used as the fluorescent probe in the assay.
(§2) Compound dilution series were prepared in DMSO via a 3-fold serial dilution from 2.5 mM to 42 nM. Compounds were then diluted 6:100 in assay buffer (20 mM Sodium Phosphate, pH 6.0, 50 mM NaCl, 1 mM EDTA, 0.01% Triton X-100, 1 mM DTT) to yield 3× working solutions. Six microliters (μL) of the working solution was then transferred to white, low-volume assay plates (Costar #3673). A 1.5× assay mixture containing His-tagged bromodomain, Europium-conjugated anti-His antibody (Invitrogen PV5596) and the Alexa-647-conjugated probe molecule was also prepared. Twelve μL of this solution were added to the assay plate to reach a final volume of 18 μL. The final concentration of 1× assay buffer contains 2% DMSO, 50 μM−0.85 nM compound, 8 nM bromodomain, 1 nM antibody and 100 or 30 nM probe (for BDI or BDII, respectively). After a one-hour incubation at room temperature, TR-FRET ratios were determined using an Envision multilabel plate reader (Ex 340, Em 495/520).
(§3) TR-FRET data were normalized to the means of 24 no-compound controls (“high”) and 8 controls containing 1 μM un-labeled probe (“low”). Percent inhibition was plotted as a function of compound concentration and the data were fit with the 4 parameter logistic equation to obtain IC50s Inhibition constants (Ki) were calculated from the IC50s, probe Kd and probe concentration. Typical Z′ values were between 0.65 and 0.75. The minimum significant ratio was determined to evaluate assay reproducibility (Eastwood et al., (2006) J Biomol Screen, 11: 253-261). The MSR was determined to be 2.03 for BDI and 1.93 for BDII, and a moving MSR (last six run MSR overtime) for both BDI and BDII was typically <3.

BRD4 (BDI_K57-E168) = BRD4 (BDI_K57-E168) (Homo sapiens (Human), UniProt O60885); experiment: TR-FRET bromodomain binding assay, BRD4 first bromodomain; details: His-tagged BD1, 100 nM Alexa647 probe
Experimental: as §1, §2, §3

[1] = test system: breast cancer cell line MX-1; experiment: MX-1 cell line proliferation assay (3-day, Cell Titer Glo); assay type: cell-based, human; details: 72 hours, read-out: Cellular proliferation: EC50
Experimental: The impact of compounds of the Examples on cancer cell proliferation was determined using the breast cancer cell line MX-1 (ATCC) in a 3-day proliferation assay. MX-1 cells were maintained in RPMI supplemented with 10% FBS at 37 C.° and an atmosphere of 5% CO2. For compound testing, MX-1 cells were plated in 96-well black bottom plates at a density of 5000 cells/well in 90 μl of culture media and incubated at 37° overnight to allow cell adhesion and spreading. Compound dilution series were prepared in DMSO via a 3-fold serial dilution from 3 mM to 0.1 μM. The DMSO dilution series were then diluted 1:100 in phosphate buffered saline, and 10 μL of the resulted solution were added to the appropriate wells of the MX-1 cell plate. The final compound concentrations in the wells were 3, 1, 0.3, 0.1, 0.03, 0.01, 0.003, 0.001, 0.0003 and 0.0001 μM.
Luminescence readings from the Cell Titer Glo assay were normalized to the DMSO treated cells and analyzed using the GraphPad Prism software with sigmoidal curve fitting to obtain EC50s. The minimum significant ratio (MSR) was determined to evaluate assay reproducibility (Eastwood et al., (2006) J Biomol Screen, 11: 253-261).

SMILES | Ki (BRD4 (BDII_E352-M457)) [nM] | Ki (BRD4 (BDI_K57-E168)) [nM] | EC50 ([1]; Homo sapiens, MX1, MX-1 cells) [nM] | EC50 ([1]; MX-1 cells) [nM]
Cc1[nH]c(-c2cccc3ccccc23)c2c1C(=O)CCC2 [Example 19, 3-methyl-1-(naphthalen-1-yl)-2,5,6,7-tetrahydro-4H-isoindol-4-one] |  |  | 3180 | 
Cc1[nH]c(-c2ccc(S(N)(=O)=O)cc2)c2c1C(=O)CCC2 [Example 5, 4-(3-methyl-4-oxo-4,5,6,7-tetrahydro-2H-isoindol-1-yl)benzenesulfonamide] | 2030 | 1400 | 3700 | 
Cc1[nH]c(-c2cc(NS(C)(=O)=O)ccc2Sc2ccccc2)c2c1C(=O)CCC2 [Example 44, N-[3-(3-methyl-4-oxo-4,5,6,7-tetrahydro-2H-isoindol-1-yl)-4-(phenylsulfanyl)phenyl]methanesulfonamide] | 37 | 67 | 645 | 
Cc1[nH]c(-c2ccccc2Oc2ccccc2)c2c1C(=O)CC(C)C2 (centres unmarked) [Example 65, 3,6-dimethyl-1-(2-phenoxyphenyl)-2,5,6,7-tetrahydro-4H-isoindol-4-one] | 382 | 184 | 1780 | 
Cc1[nH]c(-c2cc(NS(=O)(=O)CC(F)(F)F)ccc2Oc2ccc(F)cc2F)c2c1C(=O)CCC2 [Example 48, N-[4-(2,4-difluorophenoxy)-3-(3-methyl-4-oxo-4,5,6,7-tetrahydro-2H-isoindol-1-yl)phenyl]-2,2,2-trifluoromethanesulfonamide] | 43 | 68 |  | 564
Cc1[nH]c(-c2cc(NS(=O)(=O)N(C)C)ccc2Oc2ccc(F)cc2F)c2c1C(=O)CCC2 [Example 49, N′-[4-(2,4-difluorophenoxy)-3-(3-methyl-4-oxo-4,5,6,7-tetrahydro-2H-isoindol-1-yl)phenyl]-N,N-dimethylsulfuric Diamide] | 192 | 43 | 364 | 
Cc1[nH]c(-c2ccccc2OCc2cccnc2)c2c1C(=O)CCC2 [Example 37, 3-methyl-1-[2-(pyridin-3-ylmethoxy)phenyl]-2,5,6,7-tetrahydro-4H-isoindol-4-one] | 4140 | 526 | > 3000 | 
CC(=O)Nc1ccc(Oc2ccccc2)c(-c2c3c(c(C)n2C)C(=O)CCC3)c1 [Example 42, N-[3-(2,3-dimethyl-4-oxo-4,5,6,7-tetrahydro-2H-isoindol-1-yl)-4-phenoxyphenyl]acetamide] | 1090 | 569 | > 3000 | 
Cc1c2c(c(-c3cc(NS(C)(=O)=O)ccc3Oc3ccccc3)n1C)CCCC2=O [Example 41, N-[3-(2,3-dimethyl-4-oxo-4,5,6,7-tetrahydro-2H-isoindol-1-yl)-4-phenoxyphenyl]methanesulfonamide] | 216 | 161 | 370 | 
CC(=O)Nc1ccc(Oc2ccc(F)cc2F)c(-c2[nH]c(C)c3c2CCCC3=O)c1 [Example 50, N-[4-(2,4-difluorophenoxy)-3-(3-methyl-4-oxo-4,5,6,7-tetrahydro-2H-isoindol-1-yl)phenyl]acetamide] | 551 | 71 | 609 | 
Cc1[nH]c(-c2ccccc2OCC2CCCC2)c2c1C(=O)CCC2 [Example 30, 1-[2-(cyclopentylmethoxy)phenyl]-3-methyl-2,5,6,7-tetrahydro-4H-isoindol-4-one] | 4780 | 1250 |  | 
Cc1[nH]c(-c2ccccc2N2CCOCC2)c2c1C(=O)CC(C)(C)C2 [Example 61, 3,6,6-trimethyl-1-[2-(morpholin-4-yl)phenyl]-2,5,6,7-tetrahydro-4H-isoindol-4-one] | 1680 | 2200 |  | 
Cc1[nH]c(-c2cccc3[nH]cnc23)c2c1C(=O)CCC2 [Example 21, 1-(1H-benzimidazol-4-yl)-3-methyl-2,5,6,7-tetrahydro-4H-isoindol-4-one] | 5920 | 1860 |  | 
Cc1[nH]c(-c2ccccc2COc2ccccc2)c2c1C(=O)CCC2 [Example 24, 3-methyl-1-[2-(phenoxymethyl)phenyl]-2,5,6,7-tetrahydro-4H-isoindol-4-one] | 2300 | 1200 |  | 

The remaining compounds from weak to strong by Ki (BRD4 (BDII_E352-M457)), led by results:

Ki (BRD4 (BDII_E352-M457)) [nM] | Ki (BRD4 (BDI_K57-E168)) [nM] | EC50 ([1]; Homo sapiens, MX1, MX-1 cells) [nM] | EC50 ([1]; MX-1 cells) [nM] | SMILES
8420 | 3770 |  |  | Cc1[nH]c(-c2ccc3c(c2)OCO3)c2c1C(=O)CCC2 [Example 16, 1-(1,3-benzodioxol-5-yl)-3-methyl-2,5,6,7-tetrahydro-4H-isoindol-4-one]
8160 | 1040 | > 3000 |  | Cc1[nH]c(-c2ccccc2OCCN2CCOCC2)c2c1C(=O)CCC2 [Example 33, 3-methyl-1-{2-[2-(morpholin-4-yl)ethoxy]phenyl}-2,5,6,7-tetrahydro-4H-isoindol-4-one]
4060 | 1790 | 1230 |  | Cc1[nH]c(-c2cccc3[nH]ccc23)c2c1C(=O)CCC2 [Example 10, 1-(1H-indol-4-yl)-3-methyl-2,5,6,7-tetrahydro-4H-isoindol-4-one]
3100 | 961 | 2750 |  | Cc1[nH]c(-c2cccc(C(N)=O)c2)c2c1C(=O)CCC2 [Example 9, 3-(3-methyl-4-oxo-4,5,6,7-tetrahydro-2H-isoindol-1-yl)benzamide]
3070 | 3680 | 3400 |  | Cc1[nH]c(-c2ccccc2)c2c1C(=O)CCC2 [Example 1, 3-methyl-1-phenyl-2,5,6,7-tetrahydro-4H-isoindol-4-one]
2920 | 315 | > 3000 |  | Cc1[nH]c(-c2ccccc2OCC2CCOC2)c2c1C(=O)CCC2 (centres unmarked) [Example 29, 3-methyl-1-[2-(tetrahydrofuran-3-ylmethoxy)phenyl]-2,5,6,7-tetrahydro-4H-isoindol-4-one]
2070 | 151 | 600 |  | Cc1[nH]c(-c2cc(NS(C)(=O)=O)ccc2Oc2ccccc2)c2c1C(=O)CC(CC(C)C)C2 (centres unmarked) [Example 69, N-{3-[3-methyl-6-(2-methylpropyl)-4-oxo-4,5,6,7-tetrahydro-2H-isoindol-1-yl]-4-phenoxyphenyl}methanesulfonamide]
2030 | 943 | 1230 |  | Cc1[nH]c(-c2ccccc2OCc2ccccc2)c2c1C(=O)CCC2 [Example 18, 1-[2-(benzyloxy)phenyl]-3-methyl-2,5,6,7-tetrahydro-4H-isoindol-4-one]
1940 | 202 | 1880 |  | Cc1[nH]c(-c2ccccc2OCC2CCOCC2)c2c1C(=O)CCC2 [Example 32, 3-methyl-1-[2-(tetrahydro-2H-pyran-4-ylmethoxy)phenyl]-2,5,6,7-tetrahydro-4H-isoindol-4-one]
926 | 375 | 950 |  | Cc1[nH]c(-c2cc(NS(C)(=O)=O)ccc2Oc2ccccc2)c2c1C(=O)CC(C(C)C)C2 (centres unmarked) [Example 71, N-{3-[3-methyl-4-oxo-6-(propan-2-yl)-4,5,6,7-tetrahydro-2H-isoindol-1-yl]-4-phenoxyphenyl}methanesulfonamide]
653 | 68 | 734 |  | Cc1[nH]c(-c2cc(C(=O)NCC3CCCO3)ccc2Oc2ccccc2)c2c1C(=O)CCC2 (centres unmarked) [Example 56, 3-(3-methyl-4-oxo-4,5,6,7-tetrahydro-2H-isoindol-1-yl)-4-phenoxy-N-(tetrahydrofuran-2-ylmethyl)benzamide]
409 | 576 | > 3000 |  | Cc1[nH]c(-c2cccc(NS(C)(=O)=O)c2)c2c1C(=O)CC(C)(C)C2 [Example 64, N-[3-(3,6,6-trimethyl-4-oxo-4,5,6,7-tetrahydro-2H-isoindol-1-yl)phenyl]methanesulfonamide]
